From the NIST ThermoML archive (doi:10.1016/j.fluid.2012.06.002)
Numbers after ± are expanded uncertainties.

Assay: wn = mass fraction of the nth substance listed
Conditions: 101 kPa, Liquid, pycnometer

mass density (298.15 K, w1 = 0.293) [kg/m3]	mass density (328.15 K, w1 = 0.436) [kg/m3]	mass density (298.15 K, w1 = 0.538) [kg/m3]	mass density (328.15 K, w1 = 0.734) [kg/m3]	SMILES
1164 ± 1	1258 ± 1			N.O=P(O)(O)O [ammonium dihydrogen phosphate] + O
		1260 ± 1	1359 ± 2	NC(N)=O.O=P(O)(O)O [urea phosphate] + O
